From article PMC5584254, “Identification of novel small molecule Beclin 1 mimetics activating autophagy” (Oncotarget, 2017) come the findings set out here.

The subject of experiment [1] is PC-3 and PC-3a prostate cancer cells. Nature of the experiment: Western blot of autophagy markers (LC3 conversion, P62). The format is cell-based, Human. The following applies: 24 h treatment. As for the experimental part: (§1) Figure 5 Acridine compounds induce autophagy in prostate cancer cells (A) LC3-II conversion in western blot analysis indicated the activity of autophagy. Cells were treated with DMSO or compounds for 24 h, and then lysed and processed for western blot analysis of LC3. (–)G and EBSS were used as positive controls. […] Yellow puncta indicate autophagosome (overlay of red and green fluorescence); red puncta indicate autolysosome (due to green fluorescence quenching at the acidic condition). Cells expressing RFP-GFP-LC3 were treated with compounds A13, A15 or A21 at indicated concentration for 24 h.
Figure 8 Acridine compounds induce autophagy in PC-3 and PC-3a cancer cells LC3-II conversion in western blot analysis indicated the activity of autophagy. Cells were treated with DMSO or compounds for 24 h, and then lysed and processed for western blot analysis of LC3. (–)G and EBSS were used as positive controls.
Human prostate cancer cell lines PC-3 and DU145, were purchased from American Type Culture Collection (ATCC) and used within 50 passages. PC-3a is a derivative of PC-3 that is resistant to chemo/radiotherapy, established in our lab and confirmed by genotyping. All cells were maintained in DMEM (Mediatech, Manassas, VA) supplemented with 10% fetal bovine serum (FBS) (Sigma-Aldrich, St. Louis, MO), 1% Glutamine (Mediatech, Manassas, VA), 1% antibiotics (Mediatech, Manassas, VA). Compounds for primary FP-based HTS screening were from Prestwick, Microsource, University of Kansas Center of Excellence in Chemical Methodologies & Library Development (KU CMLD, Lawrence, KS), and Chembridge libraries. Compounds for MTT and SPR validation experiment were purchased from Microsource (Gaylordsville, CT) and Hit2lead Company (San Diego, CA). Acridine analogues, compound 1–6, were from our in-house library (provided by Specialized Chemistry Center, University of Kansas, Lawrence, KS); compound 7–17 were synthesized as described in supplementary information. (–)-Gossypol was isolated from racemic gossypol as we previously described. ABT-263 and DMSO were purchased from Sigma. MTT-based cytotoxicity assay and western blot analysis was carried out according to our previous publications. The primary antibodies used were LC3B (#2775) (Cell signaling Technology, Danvers, MA) and β-actin (A5441) (Sigma).
(Immunoblotting shows a protein as a band on a membrane.)

Experiment [2] concerns the target T1, Bcl-xL-Beclin 1 complex (Homo sapiens, UniProt Q07817).
T1 construct: made in house
Nature of the experiment: Concentration response FP reconfirmation of HTS hits. The following applies: hits of first screen; for inhibition at 5 µM: read-out: Dose-response (% Inhibition) 5 μM; for inhibition at 10 µM: read-out: Dose-response (% Inhibition) 10 μM; for inhibition at 20 µM: read-out: Dose-response (% Inhibition) 20 μM; for inhibition at 40 µM: read-out: Dose-response (% Inhibition) 40 μM; for inhibition at 80 µM: read-out: Dose-response (% Inhibition) 80 μM; for inhibition at 160 µM: read-out: Dose-response (% Inhibition) 160 μM. In kind it is binding. How it is done: (§2) Then the plates were read by Envision (Perkin Elmer, Waltham, MA). […] The hits were selected from library stocks and reconfirmed in a concentration response FP assay (6 doses ranging from 5 μM to 160 μM or 8 doses ranging from 0.5 μM to 60 μM).

For a further experiment, the system named is PC-3 and PC-3a cells. Put plainly: RFP-GFP-LC3 fluorescence microscopy (autophagic flux). The following applies: cells transfected with RFP-GFP-LC3, treated 24 h; PC-3a and PC-3. The format is cell-based, Human. How it is done:
as §1
PC-3 and PC-3a cells were transfected with ptfLC3 plasmid using Lipofectamine 2000 (Invitrogen Life Technologies, Carlsbad, CA). ptfLC3 was a gift from Tamotsu Yoshimori (Addgene plasmid # 21074), and is a tandem fluorescent-tagged LC3 with mRFP (mRFP, monomeric Red Fluorescent Protein) and EGFP (EGFP, Enhanced Green Fluorescent Protein). Twenty-four hours after transfection, cells were treated with compounds for 24 h, then fixed in 4% formaldehyde for 10 min. Cells were then washed three times with PBS, stained with DAPI (0.5 μg/ml in PBS) for 5 min and observed under a fluorescence microscope (OLYMPUS IX81, Tokyo, Japan) with X 40 lens.

Experiment [3] addresses T1, Bcl-xL-Beclin 1 complex. Nature of the experiment: FP-based high-throughput screening, primary screen. The following applies: first screen; 40 μM compound, 2.5 μM Bcl-xL, 400 nM 20-mer. In kind it is binding.
Excerpt: Next, we optimized the FP competitive binding assay in a 384-well microplate format and carried out a small-scale HTS using a small library, which contains 6580 compounds from Prestwick, Microsource and our in-house CMLD library. Then, the FP assay was optimized and applied in screening the larger Chembridge library consisting of 43736 compounds. HTS cascades are shown in Supplementary Figure 1A–1B. […] All chemical structures can be found on the PubChem website (http://pubchem.ncbi.nlm.nih.gov/).
as §2

Counter-ions that a name gives are not always drawn.

T1 sequence (Q07817 whole entry, one chain of several): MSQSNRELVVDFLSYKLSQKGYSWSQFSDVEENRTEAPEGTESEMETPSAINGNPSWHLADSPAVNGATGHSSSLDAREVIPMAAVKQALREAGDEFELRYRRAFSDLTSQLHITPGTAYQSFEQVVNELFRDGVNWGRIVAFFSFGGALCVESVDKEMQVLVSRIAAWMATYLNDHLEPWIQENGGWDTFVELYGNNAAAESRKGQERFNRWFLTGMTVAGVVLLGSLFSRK

As usually defined, the inhibition is the relative decrease from the control value, in per cent. Turning to `Nc1ccc2cc3ccc(N)cc3nc2c1` [Compound A13, PROFLAVINE HEMISULFATE], in experiment [1], the “LC3-I to LC3-II conversion” value is recorded as “Increased level of LC3-II”. For the same compound, at Bcl-xL-Beclin 1 complex [2], the inhibition at 5 µM was 55.9%, the inhibition at 10 µM was 65.8%, the inhibition at 20 µM is 101% and the inhibition at 40 µM was found to be 102%. Besides, on Bcl-xL-Beclin 1 complex [2], the inhibition at 80 µM worked out at 102% and the inhibition at 160 µM amounted to 102%. Besides, the “RFP-GFP-LC3 puncta” value in the experiment on PC-3 and PC-3a cells is listed as “many strong red puncta”. Also, on Bcl-xL-Beclin 1 complex [3], the “Primary Screen mP” value is -3.2 mP and the inhibition at 40 µM worked out at 102%.

In the case of `CCOc1ccc2nc3cc(N)ccc3c(N)c2c1` [Compound A15, ETHACRIDINE LACTATE], in experiment [1], the “LC3-I to LC3-II conversion” value is reported as “Increased level of LC3-II”. For the same compound, on Bcl-xL-Beclin 1 complex [2], the inhibition at 5 µM is -0.5%, the inhibition at 10 µM was determined as 6.2%, the inhibition at 20 µM worked out at 14.9% and the inhibition at 40 µM worked out at 20%. Moreover, on Bcl-xL-Beclin 1 complex [2], the inhibition at 80 µM came to 47.7% and the inhibition at 160 µM amounted to 60.9%. Further, in the experiment on PC-3 and PC-3a cells, the “RFP-GFP-LC3 puncta” value is “many strong red puncta”. For the same compound, on Bcl-xL-Beclin 1 complex [3], the “Primary Screen mP” value was determined as 83.5 mP and the inhibition at 40 µM stood at 37.9%.

On to `CCN(CC)CCCC(C)Nc1c2ccc(Cl)cc2nc2ccc(OC)cc12` (stereo not drawn) [Compound A21, QUINACRINE HYDROCHLORIDE], for which the “LC3-I to LC3-II conversion” value in experiment [1] is reported as “Increased level of LC3-II”. On Bcl-xL-Beclin 1 complex [2], the inhibition at 5 µM came to 14.5%, the inhibition at 10 µM came out at 26.7%, the inhibition at 20 µM came to 38.6% and the inhibition at 40 µM was determined as 47.9%. In addition, at Bcl-xL-Beclin 1 complex [2], the inhibition at 80 µM is 58.3% and the inhibition at 160 µM was found to be 66.3%. Further, the “RFP-GFP-LC3 puncta” value with PC-3 and PC-3a cells is given as “many strong red puncta”. Further, on Bcl-xL-Beclin 1 complex [3], the “Primary Screen mP” value is 72.2 mP and the inhibition at 40 µM worked out at 48.2%.
